The source of these data is PubChem BioAssay (NCI).

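A five-concentration, 48-hour dose response in 96-well plates underlies each endpoint, interpolated linearly between surrounding concentrations. GI50 marks 50% less growth. Definition used: TGI = concentration required for complete inhibition of growth.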 Where only a bound is given, the exact number is not on record here.

Common to all, as to test: NCI anticancer screen, dose series, 48 h
The subject of assay [1] is NCI-H460 lung.
Assay [2] relates to HL-60(TB) leukemia.
Assay [3] relates to SF-268 CNS.
Assay [4] relates to OVCAR-5 ovarian.
Assay [5] has as its system OVCAR-3 ovarian.
Assay [6] concerns EKVX NSCLC.
Assay [7] deals with MOLT-4 leukemia.
Assay [8] deals with SK-MEL-2 melanoma.
Assay [9] relates to UO-31 renal.
Assay [10] relates to M19-MEL melanoma.

Consider `C#COc1cccc(Nc2ncnc3cc(NC(=O)[C@@H](C)Cl)ccc23)c1`, for which the GI50 in [1] was 7.63 µM; in [2], 2.02 µM; in assay [3] it was 16.9 µM; in assay [4], 18 µM; in assay [5], 2.68 µM; in assay [6] it was 28.7 µM. The GI50 in assay [7] was 4.29 µM; in assay [8], 5.24 µM; in assay [9], 17.8 µM. For the same compound, the TGI is > 62.5 µM in assay [1]; 8.25 µM in assay [2]; > 62.5 µM in assay [3]; > 62.5 µM in assay [4]; > 62.5 µM in assay [5]; > 62.5 µM in assay [6]. Further, the TGI in assay [7], in assay [8] and in [9] was > 62.5 µM each time.
As to `CCN(CC)CCCC(Nc1c2ccc(Cl)cc2nc2ccc(OC)cc12)c1ccc(Cl)cc1` (stereo unspecified), the GI50 in assay [1] was 1.33 µM; in assay [2], 1.48 µM; in [3], 1.43 µM; in assay [4], 1.74 µM; in [5], 1.22 µM; in [6] it was 1.35 µM. Moreover, the figures for the GI50 in assay [7], in assay [8] and in [9] were 0.761 µM, 1.89 µM and 1.58 µM, respectively. In addition, the TGI was 2.88 µM in [1]; 3.23 µM in [2]; 3.05 µM in assay [3]; 3.36 µM in assay [4]; 2.75 µM in [5]; 2.96 µM in assay [6]. The TGI in assay [7] was 2.3 µM; in assay [8], 3.63 µM; in assay [9], 3.08 µM.
Take `OCC1OC(OC2(CO)OC(CO)C(O)C2O)C(O)C(O)C1O` (stereo unspecified): the GI50 in [1], in [2], in [3], in [4], in assay [5] and in assay [6] was > 100 µM each time. In addition, the GI50 in assay [7], in assay [8] and in assay [9] was > 100 µM in each case. In addition, the TGI in assay [1], in [2], in [3], in assay [4], in assay [5] and in assay [6] was > 100 µM each time. In addition, the TGI in [7], in assay [8] and in assay [9] was > 100 µM each time.
As to `N#CN1CC[C@H](C(=O)Nc2ncc(-c3ccccc3)s2)C1`, the GI50 was 0.423 µM in assay [1]; 0.269 µM in [2]; 0.789 µM in assay [3]; 1.39 µM in assay [4]; 0.346 µM in [5]; 1.43 µM in [6]. In addition, the GI50 in assay [7] is 0.309 µM; in [8], 0.274 µM; in [9], 0.549 µM. For the same compound, the TGI in [1] is 2.47 µM; in assay [2], 0.652 µM; in assay [3] it was 4.23 µM; in assay [4] it was > 100 µM; in [5], 1.44 µM; in assay [6] it was 3.28 µM. Moreover, the TGI amounted to 2.04 µM in [7], 0.726 µM in [8] and 5.36 µM in [9].
Take `N#Cc1ccccc1Sc1ccccc1N`: the TGI in assay [1], in assay [2], in assay [3], in assay [10], in assay [4] and in assay [6] was > 100 µM each time. Also, the TGI in assay [7], in assay [8] and in [9] was > 100 µM in each case.
With `N#CC(C(=O)Nc1ccccc1)C1=C(Cl)C(=O)c2ccccc2C1=O` (stereo unspecified), the TGI was > 100 µM in [1]; 20.5 µM in [2]; 31 µM in assay [3]; 21.8 µM in assay [10]; 32.2 µM in assay [4]; 34.5 µM in [5]. Moreover, the TGI turned out to be 35.1 µM in [6], 32.7 µM in assay [8] and 26.9 µM in assay [9].
As for `COc1ccc(N(CC(=O)O)N=O)cc1`, the TGI in assay [1], in [2], in assay [3], in assay [4], in assay [5] and in assay [6] was > 100 µM in each case. Further, the TGI in assay [7], in assay [8] and in [9] was > 100 µM in each case.
Consider `O=C(O)c1ccccc1NCn1nc(-c2ccccc2O)oc1=S`, for which the GI50 in assay [1] is 39.5 µM; in [2], 64.9 µM; in [3], 80.9 µM; in [4], > 100 µM; in [5], > 100 µM; in assay [6] it was > 100 µM. Also, the GI50 in [7] is 9.98 µM; in [8] it was > 100 µM; in assay [9], > 100 µM. In addition, the TGI in [1], in [2], in [3], in assay [4], in [5] and in assay [6] was > 100 µM each time. Further, the TGI was 30 µM in [7], > 100 µM in [8] and > 100 µM in assay [9].
Take `Nc1c(C(=O)Nc2ccccc2)sc2nc3c(cc12)C(=O)CCC3`: the GI50 in [1] was 0.346 µM; in [2], 0.587 µM; in assay [3] it was 1.02 µM; in [4], 1.28 µM; in assay [5], 0.264 µM; in assay [6] it was 0.627 µM. Moreover, the results for the GI50 in [8] and in assay [9] were 0.35 µM and > 27.3 µM, respectively. Besides, the TGI in assay [2] was > 100 µM; in [3], > 100 µM; in assay [4], > 100 µM; in assay [5] it was 1.22 µM; in assay [6] it was > 100 µM; in assay [7], > 100 µM. Also, the TGI in assay [9] was > 100 µM.
With `COc1ccccc1/C=C(\NC(=O)c1ccccc1)c1nc2ccc(Cl)cc2[nH]1`, the TGI in assay [1] is > 100 µM; in assay [3], > 100 µM; in assay [10], > 100 µM; in assay [4], > 100 µM; in [5] it was 49.6 µM; in assay [6] it was 78.7 µM. Further, the TGI in assay [7] is 54.9 µM; in [8], 65.7 µM; in assay [9] it was 46.6 µM.
